Converted amounts (≈) assume the structure as drawn. A value given as a limit tells only on which side of the number the result lay.

Data set [1] concerns Mycobacterium tuberculosis. In words: Antimycobacterial activity against drug-susceptible Mycobacterium tuberculosis after 21 days by agar dilution method. The settings on record: 504 h. Type of data set: functional. In general terms: In agar dilution, organisms are placed on agar that contains the substance at set levels.
For another data set, the system named is Mycobacterium kansasii. The experiment in a line: Antimycobacterial activity against Mycobacterium kansasii after 7 days by agar dilution method. Type of data set: functional. The settings on record: 168 h.
In data set [2] the test system is Mycolicibacterium fortuitum. The experiment in a line: Antimycobacterial activity against Mycobacterium fortuitum after 3 days by agar dilution method. Type of data set: functional. The settings on record: 72 h.
In data set [3] the test system is Mycobacterium avium. The experiment in a line: Antimycobacterial activity against Mycobacterium avium serovar 4 after 14 days by agar dilution method. In kind it is functional. The settings on record: serovar 4, 336 h.
For data set [4], the system named is Mycobacterium avium. The experiment in a line: Antimycobacterial activity against Mycobacterium avium serovar 8 after 14 days by agar dilution method. Type of data set: functional. The settings on record: serovar 8, 336 h.
The test system of data set [5] is Mycobacterium intracellulare. In words: Antimycobacterial activity against Mycobacterium intracellular serovar 16 after 21 days by agar dilution method. In kind it is functional. The following applies: serovar 16, 504 h.
In a further data set the test system is Mycobacteroides chelonae. The experiment in a line: Antimycobacterial activity against Mycobacterium chelonae after 3 days by agar dilution method. Type of data set: functional. The following applies: 72 h.
Data set [6] deals with Mycobacteroides abscessus. The experiment in a line: Antimycobacterial activity against Mycobacterium abscessus after 3 days by agar dilution method. In kind it is functional. The following applies: 72 h.
The nature of data set [7]: Cmax in monkey at 5 mg/kg, po. In kind it is ADME, organism-based, Macaca mulatta. More on the design: dose 5 mg/kg, route oral. The following applies: rhesus monkey, in vivo.
Data set [8] can be described thus: AUC (0 to 24 hrs) in monkey at 5 mg/kg, po. Type of data set: ADME, organism-based, Macaca mulatta. More on the design: time < 24 hr, dose 5 mg/kg, route oral. The settings on record: rhesus monkey, plasma.

The term MIC50 denotes an inhibitory concentration at the 50% level, which refers to growth in some studies and to a panel of isolates in others. In general, MIC90 refers to the lowest concentration that inhibits either 90% of growth or 90% of the strains tested, depending on the study. A word on the MIC: it is the lowest concentration that inhibits growth of the organism. One may read the Cmax as the maximum level reached in the sampled fluid or tissue. As a reminder, the AUC(0-t) is the area under the concentration-time curve up to a stated or last time point. As for `COc1c(N2CC3(CC3)[C@](C)(N)C2)c(F)cc2c(=O)c(C(=O)O)cn([C@@H]3C[C@@H]3F)c12`, the MIC50 in [1] is 0.06 µg/mL (≈ 0.143 µM); with Mycobacterium kansasii, 0.06 µg/mL (≈ 0.143 µM); in data set [2], 0.125 µg/mL (≈ 0.298 µM); in the data set with Mycobacterium avium [3] it was 1 µg/mL (≈ 2.38 µM); against Mycobacterium avium [4] it was 1 µg/mL (≈ 2.38 µM); in [5], 1 µg/mL (≈ 2.38 µM). The figures for the MIC50 (against Mycobacteroides chelonae; in [6]) were 4 µg/mL (≈ 9.54 µM) and 8 µg/mL (≈ 19.1 µM), respectively. Besides, the MIC90 amounted to 0.06 µg/mL (≈ 0.143 µM) in data set [1]; 0.125 µg/mL (≈ 0.298 µM) in the data set with Mycobacterium kansasii; 0.25 µg/mL (≈ 0.596 µM) in data set [2]; 2 µg/mL (≈ 4.77 µM) in the data set on Mycobacterium avium [3]; 2 µg/mL (≈ 4.77 µM) against Mycobacterium avium [4]; 4 µg/mL (≈ 9.54 µM) in data set [5]. For the same molecule, the MIC90 against Mycobacteroides chelonae is 8 µg/mL (≈ 19.1 µM); in data set [6] it was 16 µg/mL (≈ 38.1 µM). The molecule also registered an MIC against Mycobacteroides chelonae of 4 µg/mL (≈ 9.54 µM). In addition, the highest level in [7] (Cmax) was 2200 ng/mL. Further, the AUC(0-t) at 24 h in [8] was 16900 ng·h/mL.
For the molecule `COc1c(N2CCNC(C)C2)c(F)cc2c(=O)c(C(=O)O)cn(C3CC3)c12` (configuration not stated) [GATIFLOXACIN], the MIC50 in data set [1] worked out at 0.125 µg/mL (≈ 0.333 µM); in the data set on Mycobacterium kansasii, 0.125 µg/mL (≈ 0.333 µM); in [2], 0.125 µg/mL (≈ 0.333 µM); in the data set on Mycobacterium avium [3], 2 µg/mL (≈ 5.33 µM); in the data set with Mycobacterium avium [4], 2 µg/mL (≈ 5.33 µM); in [5], 4 µg/mL (≈ 10.7 µM). Moreover, the values for the MIC50 (against Mycobacteroides chelonae; in data set [6]) were 16 µg/mL (≈ 42.6 µM) and 32 µg/mL (≈ 85.2 µM), respectively. In addition, the MIC90 was 0.25 µg/mL (≈ 0.666 µM) in data set [1]; 0.5 µg/mL (≈ 1.33 µM) against Mycobacterium kansasii; 0.25 µg/mL (≈ 0.666 µM) in data set [2]; 8 µg/mL (≈ 21.3 µM) with Mycobacterium avium [3]; 8 µg/mL (≈ 21.3 µM) against Mycobacterium avium [4]; 16 µg/mL (≈ 42.6 µM) in data set [5]. The values for the MIC90 (in the data set with Mycobacteroides chelonae; in data set [6]) were 32 µg/mL (≈ 85.2 µM) and 64 µg/mL (≈ 170 µM), respectively.
Take `C[C@H]1COc2c(N3CCN(C)CC3)c(F)cc3c(=O)c(C(=O)O)cn1c23.C[C@H]1COc2c(N3CCN(C)CC3)c(F)cc3c(=O)c(C(=O)O)cn1c23.O` [LEVOFLOXACIN]: the MIC50 in data set [1] came out at 0.5 µg/mL; in the data set on Mycobacterium kansasii it was 0.25 µg/mL; in data set [2], 0.25 µg/mL; with Mycobacterium avium [3], 8 µg/mL; in the data set on Mycobacterium avium [4] it was 8 µg/mL; in data set [5] it was 8 µg/mL. The MIC50 against Mycobacteroides chelonae came to 32 µg/mL; in data set [6] it was 64 µg/mL. Besides, the MIC90 is 0.5 µg/mL in [1]; 1 µg/mL in the data set with Mycobacterium kansasii; 0.5 µg/mL in [2]; 32 µg/mL against Mycobacterium avium [3]; 32 µg/mL in the data set with Mycobacterium avium [4]; 32 µg/mL in data set [5]. Moreover, the MIC90 stood at 64 µg/mL in the data set with Mycobacteroides chelonae and 128 µg/mL in data set [6]. In the data set on Mycobacterium kansasii, this molecule showed an MIC of 0.25 µg/mL.
`COc1c(N2C[C@@H]3CCCN[C@@H]3C2)c(F)cc2c(=O)c(C(=O)O)cn(C3CC3)c12` [MOXIFLOXACIN]: the MIC50 in data set [1] came out at 0.25 µg/mL (≈ 0.623 µM); in the data set with Mycobacterium kansasii, 0.125 µg/mL (≈ 0.311 µM); in [2], 0.125 µg/mL (≈ 0.311 µM); in [5], 2 µg/mL (≈ 4.98 µM); with Mycobacteroides chelonae, 32 µg/mL (≈ 79.7 µM); in data set [6] it was 64 µg/mL (≈ 159 µM). The MIC90 is 0.25 µg/mL (≈ 0.623 µM) in data set [1]; 0.25 µg/mL (≈ 0.623 µM) against Mycobacterium kansasii; 0.25 µg/mL (≈ 0.623 µM) in [2]; 8 µg/mL (≈ 19.9 µM) in data set [5]; 32 µg/mL (≈ 79.7 µM) against Mycobacteroides chelonae; 128 µg/mL (≈ 319 µM) in data set [6].
In the case of `CO[C@H]1/C=C/O[C@@]2(C)Oc3c(C)c(O)c4c(O)c(c(/C=N/N5CCN(C)CC5)c(O)c4c3C2=O)NC(=O)/C(C)=C\C=C\[C@H](C)[C@H](O)[C@@H](C)[C@@H](O)[C@@H](C)[C@H](OC(C)=O)[C@@H]1C` [RIFAMPIN], the MIC50 worked out at 0.06 µg/mL (≈ 0.0729 µM) in data set [1]; 0.25 µg/mL (≈ 0.304 µM) against Mycobacterium kansasii; 32 µg/mL (≈ 38.9 µM) in data set [2]; 32 µg/mL (≈ 38.9 µM) in the data set with Mycobacterium avium [3]; 32 µg/mL (≈ 38.9 µM) against Mycobacterium avium [4]; 2 µg/mL (≈ 2.43 µM) in data set [5]. Besides, the MIC50 (against Mycobacteroides chelonae; in data set [6]) was above 128 µg/mL throughout. For the same molecule, the MIC90 was 0.125 µg/mL (≈ 0.152 µM) in data set [1]; 0.25 µg/mL (≈ 0.304 µM) with Mycobacterium kansasii; 64 µg/mL (≈ 77.8 µM) in data set [2]; 128 µg/mL (≈ 156 µM) against Mycobacterium avium [3]; 128 µg/mL (≈ 156 µM) with Mycobacterium avium [4]; 32 µg/mL (≈ 38.9 µM) in [5]. Also, the MIC90 (against Mycobacteroides chelonae; in data set [6]) was above 128 µg/mL throughout. Also, the MIC (against Mycobacteroides chelonae; in data set [6]) was above 128 µg/mL throughout.

Values taken from ChEMBL document CHEMBL1255490, “In vitro activities of DC-159a, a novel fluoroquinolone, against Mycobacterium species” (Antimicrob Agents Chemother, 2010).
